Results as given in publication PMC3561363, “A Novel Retro-Inverso Peptide Inhibitor Reduces Amyloid Deposition, Oxidation and Inflammation and Stimulates Neurogenesis in the APPswe/PS1ΔE9 Mouse Model of Alzheimer’s Disease” (PLoS ONE, 2013).

Tests used:
Drosophila = tested on: Drosophila; set-up: method as in PMID 20559435; details: cited from earlier work
AD patients = details: cited from earlier work
SHSY-5Y cells = assay: Cell penetration of fluorescein-tagged peptides, microscopy; details: 1 µM
APP/PS1 transgenic mice = assay: Blood brain barrier penetration and brain localisation after i.p. injection; format: in vivo, mouse; details: 100 nmol/kg i.p., 1 h, 17-month old APP/PS1 mice
Description: APPswe/PS1ΔE9 mice with a C57Bl/6 background (APP/PS1 mice) were obtained from the Jackson lab (http://research.jax.org/repository/alzheimers.html). […] To look at the effects of RI-OR2-TAT on mouse brain pathology (experiment 2), 8 female 10-months-old APP/PS1 mice were used. The animals were housed in single cages in a temperature controlled holding room (21.5°C±1) with 12∶12 h light and dark cycle. Food and water was available ad libitum.
The animals were then housed in a dark room. After 1 h, the animals were anaesthetised with isoflurane and sodium barbiturate (Dolethal, Bayer, Germany), transcardially perfused and the brains were retrieved and fixed in 4% ice cold paraformaldehyde.
For experiment 1 (BBB penetration), individual sections were incubated with the following primary antibodies at 4°C overnight: anti-Aβ (1∶200 dilution, Invitrogen, 71–5800), or anti-Iba 1 (1∶1000 dilution, Wako 016-20001, Germany). Sections were then stained with goat anti-rabbit Alexa Fluor 555 (1∶150 dilution, A21428 Invitrogen) for 1 h.
All sections were visualized using an Axio Scope 1 fluorescence microscope (Zeiss, Germany). For quantification, two images per section were taken from the cortex area with a 10X objective for 8-oxo guanine and β-amyloid staining, and a 100X objective for Iba1 staining, with a minimum of 5 sections visualized per animal. […]

[1] = molecular target: immobilized Aβ(1–42) (Aβ42) monomers, oligomers and fibrils; set-up: method as in PMID 20230062; details: SPR; cited from earlier work
Aβ = tested on: Aβ; set-up: method as in 2 sources, ref 16 = [16]; PMID 20230062; doi:10.1021/bi100144m; 16 Taylor M , Moore S , Mayes J , Parkin E , Beeg M , et al ( 2010 ) Development of a proteolytically stable retro-inverso peptide inhibitor of β-amyloid oligomerization as a potential novel treatment ||| ref 5, 52 = [5]; PMID 19605645; doi:10.1523/JNEUROSCI.1071-09.2009; 5 Ma QL , Yang F , Rosario ER , Ubeda OJ , Beech W , et al ( 2009 ) β-amyloid oligomers induce phosphorylation of tau and inactivation of insulin receptor substrate via c-Jun N-terminal kinase signali || [52]; PMID 15590663; doi:10.1074/jbc.M404751200; 52 Yang F , Lim GP , Begum AN , Ubeda OJ , Simmons MR , et al ( 2005 ) Curcumin inhibits formation of amyloid β oligomers and fibrils, binds plaques, and reduces amyloid in vivo . J Biol Chem 280 : 58; details: cited from earlier work
cultured cells = tested on: cultured cells; set-up: method as in PMID 20230062; details: cited from earlier work
Aβ42 = assay: Thioflavin T (ThT) assay for Aβ fibrils; format: biochemical; details: ThT, 25 µM Aβ42, 48 h; figure title
Description: This method was the same as that published previously. Briefly, 60 µl samples of solutions containing Aβ42 (25 µM), ThT (15 µM) and between 0 and 125 µM RI-OR2 or RI-OR2–TAT, in 10 mM phosphate buffered saline (PBS), pH 7.4, were incubated in sealed, black, clear-bottomed 384-well plates (Corning). ThT fluorescence was monitored every 10 mins (λex = 442 nm, λem = 483 nm) for 48 h at 30°C in a Biotek Synergy 2 plate reader.

[2] = set-up: method as in earlier work; details: no reference given; 53 concern derivatives; cited from earlier work
[3] = tested on: soluble Aβ and β-amyloid plaque deposits in mice; set-up: method as in PMID 22323736; details: oral administration, cited from earlier work

O=C1C=C(N[C@@H](Cc2c[nH]c3ccccc23)C(=O)O)C(=O)c2ccccc21 [NQTrp, 1,4-naphthoquinon-2-yl-L-tryptophan]
phenotypic changes in Drosophila AD model (Drosophila): reversed phenotypic changes in Drosophila

AN1792: pre-aggregated Aβ42, first clinical trial of immunisation
adverse effects in first clinical trial (AD patients; human, in vivo): adverse effects involving detrimental T-cell-mediated brain inflammation

Solanezumab: Solanezumab (Eli Lilly)
Phase III trial outcome (AD patients; mild-to-moderate AD, ref presented at CTAD 2012): did not achieve key Phase III trial goals of improved cognition and function

fluorescein-rGffvlkGrrrrqrrkkrGy-NH2 [Flu-RI-OR2-TAT]
cell uptake (fluorescence localisation) (SHSY-5Y cells; 10 mins): build up of fluorescence inside the cells | localisation relative to activated microglia (APP/PS1 transgenic mice; AlexaFluor 555 anti-Iba 1): found inside activated microglial cells | localisation relative to amyloid plaques (APP/PS1 transgenic mice; cerebral cortex, AlexaFluor 555 anti-Aβ): co-localised with amyloid plaques

Ac-rGffvlkGr-NH2 [RI-OR2]
Kd [1]: 9 to 29 µM | inhibition of Aβ oligomer and fibril formation in vitro (Aβ): blocks the formation of Aβ oligomers and fibrils in vitro | effect on Aβ toxicity to cultured cells (cultured cells): inhibits the toxic effects of Aβ on cultured cells | inhibition of Aβ42 aggregation (Fig. 1) (Aβ42): inhibit the aggregation of Aβ42

fluorescein-rGffvlkGr-NH2 [Flu-RI-OR2]
cell uptake (fluorescence localisation) (SHSY-5Y cells; 1 h): remained in the culture medium

COc1cc(/C=C/C(=O)CC(=O)/C=C/c2ccc(O)c(OC)c2)ccc1O [curcumin, reference compound]
bioavailability [2]: poor bioavailability | inhibition of Aβ aggregation (Aβ): effective inhibitor of Aβ aggregation

C=C(c1ccc(C(=O)O)cc1)c1cc2c(cc1C)C(C)(C)CCC2(C)C [bexarotene]
clearance of soluble Aβ ([3]; apoE-mediated mechanisms): enhance clearance of soluble Aβ | β-amyloid plaque deposits [3]: reduce β-amyloid plaque deposits in mice
